# Source: PubChem BioAssay (NCI)
#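 1) Cells in 96-well plates. 2) Compound, 48 h, 5 concentrations. 3) Linear interpolation between surrounding doses. 4) Unreached endpoint = highest concentration. TGI: concentration producing complete growth inhibition.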
# Key:
# Assay in all cases: growth of human tumour cells (NCI), 48 h
# SNB-19 CNS = tested on: SNB-19 CNS
# HCT-116 colon = tested on: HCT-116 colon
# SF-268 CNS = tested on: SF-268 CNS
# U251 CNS = tested on: U251 CNS
# HOP-92 NSCLC = tested on: HOP-92 NSCLC
# SK-MEL-2 melanoma = tested on: SK-MEL-2 melanoma
# MOLT-4 leukemia = tested on: MOLT-4 leukemia
# UACC-257 melanoma = tested on: UACC-257 melanoma
# KM12 colon = tested on: KM12 colon
# SW-620 colon = tested on: SW-620 colon
# A498 renal = tested on: A498 renal
# K-562 leukemia = tested on: K-562 leukemia
# PC-3 prostate = tested on: PC-3 prostate
# RXF 393 renal = tested on: RXF 393 renal
# NCI-H522 lung = tested on: NCI-H522 lung
# MDA-N = tested on: MDA-N
# MCF7 breast = tested on: MCF7 breast
# COLO 205 colon = tested on: COLO 205 colon
# MDA-MB-231 breast = tested on: MDA-MB-231 breast
# NCI-H226 lung = tested on: NCI-H226 lung
SMILES,TGI (SNB-19 CNS) [µM],TGI (HCT-116 colon) [µM],TGI (SF-268 CNS) [µM],TGI (U251 CNS) [µM],TGI (HOP-92 NSCLC) [µM],TGI (SK-MEL-2 melanoma) [µM],TGI (MOLT-4 leukemia) [µM],TGI (UACC-257 melanoma) [µM],TGI (KM12 colon) [µM],TGI (SW-620 colon) [µM],TGI (A498 renal) [µM],TGI (K-562 leukemia) [µM],TGI (PC-3 prostate) [µM],TGI (RXF 393 renal) [µM],TGI (NCI-H522 lung) [µM],TGI (MDA-N) [µM],TGI (MCF7 breast) [µM],TGI (COLO 205 colon) [µM],TGI (MDA-MB-231 breast) [µM],TGI (NCI-H226 lung) [µM]
CCOC(=O)CSC1NC(C(=O)OC)CC1OC (stereo unspecified),> 100,> 100,> 100,> 100,> 100,> 100,> 100,> 100,> 100,> 100,> 100,> 100,> 100,> 100,> 100,> 100,> 100,> 100,> 100,
O=c1oc2ccccc2c(O)c1C(c1ccc(-c2ccccc2)cc1)c1c(O)c2ccccc2oc1=O,> 100,79.1,57.1,> 100,48.5,56.8,> 100,> 100,38.1,33.2,> 100,> 100,56.4,,66.7,36.1,,> 100,48.8,69
CN(C)C(=S)C(Cl)(c1ccccc1)c1ccccc1,> 100,> 100,> 100,> 100,> 100,66.8,> 100,> 100,> 100,> 100,> 100,> 100,> 100,,> 100,> 100,> 100,> 100,> 100,> 100
Cc1cn(Cc2cccc(C3=NCCCN3)c2)c(=O)n(Cc2cccc(C3=NCCCN3)c2)c1=O,> 100,> 100,> 100,> 100,> 100,> 100,> 100,> 100,> 100,> 100,> 100,> 100,> 100,,> 100,> 100,> 100,> 100,> 100,
N#CC(C#N)=c1c2ccccc2c(=C(C#N)C#N)c2ccccc12,32.4,34.4,77.5,55.4,88.6,32.9,> 100,51.2,37.6,82.8,54.9,> 100,30.4,,,41.5,> 100,37.5,32.9,38.2
Nc1cccc(OCC2CCCN3CCCCC23)c1 (stereo unspecified),32.8,30.4,36.2,44.6,87.4,44.9,39.2,34.3,32.4,39.4,28.2,76.1,37.7,42.7,,30.8,37.1,36.8,32.6,> 100
